Assay results as given in ChEMBL document CHEMBL3870312, “Rational modification of donepezil as multifunctional acetylcholinesterase inhibitors for the treatment of Alzheimer's disease” (Eur J Med Chem, 2016).
The source made the active and inactive calls. The calls are words filed in the database; no cut-off is given here.

Columns and labels:
[1] = molecular target: Cholinesterase (Homo sapiens, UniProt P06276)
Description: Inhibition of human serum BuChE using s-butyrylthiocholine iodide as substrate preincubated for 5 mins followed by substrate addition measured up to 3 mins by Ellman's method

[2] = molecular target: T1, Acetylcholinesterase (Homo sapiens, UniProt P22303)
Description: Inhibition of human erythrocytes AChE using acetylthiocholine iodide as substrate preincubated for 5 mins followed by substrate addition measured up to 3 mins by Ellman's method

[3] = molecular target: Cholinesterase (Equus caballus, UniProt P81908)
Description: Inhibition of equine serum BuChE using s-butyrylthiocholine iodide as substrate preincubated for 5 mins followed by substrate addition measured up to 3 mins by Ellman's method

[4] = molecular target: Acetylcholinesterase (Electrophorus electricus, UniProt O42275)
Description: Inhibition of electric eel AChE using acetylthiocholine iodide as substrate preincubated for 5 mins followed by substrate addition measured up to 3 mins by Ellman's method

[5] = in vitro; conditions: PAMPA
Description: Effective permeability of the compound after 18 hrs by PAMPA

[6] = species: Rattus norvegicus; assay: Cytotoxicity against rat PC12 cells assessed as reduction in cell viability at 3.125 to 50 uM after 24 hrs by MTT assay; format: toxicity; conditions: pc-12, 24 h
[7] = molecular target: Amyloid-beta precursor protein (Homo sapiens) (UniProt P05067); conditions: at 20 µM
Description: Inhibition of self-mediated aggregation of amyloid beta (1 to 42 residues) (unknown origin) at 20 uM incubated for 46 to 48 hrs by Thioflavin T binding assay relative to control

[8] = tested on: PC-12; assay: Neuroprotective activity against amyloid beta (1 to 42 residues) induced cell death in rat PC12 cells assessed as increase in cell viability at 10 to 20 uM preincubated for 24 hrs followed by amyloid beta (1 to 42 residues) addition measured after 24 hrs by MTT assay; format: functional, cell-based
[9] = tested on: PC-12; assay: Neuroprotective activity against Cu2+-amyloid beta (1 to 42 residues) induced cell death in rat PC12 cells assessed as increase in cell viability at 2.5 to 20 uM preincubated for 24 hrs followed by Cu2+-amyloid beta (1 to 42 residues) addition measured after 24 hrs by MTT assay; format: functional, cell-based
[10] = tested on: PC-12; assay: Neuroprotective activity against Cu2+-amyloid beta (1 to 42 residues) induced cell death in rat PC12 cells by phase-contrast microscopy analysis; format: functional, cell-based
[11] = tested on: PC-12; assay: Neuroprotective activity against amyloid beta (1 to 42 residues) induced cell death in rat PC12 cells by phase-contrast microscopy analysis; format: functional, cell-based
[12] = Metal chelating activity of the compound assessed as formation of ferric complex at 50 uM by fluorescence spectrophotometry; format: physicochemical
[13] = Metal chelating activity assessed as Zn2+-compound complex formation at 50 uM by fluorescence spectrophotometry; format: physicochemical
[14] = Metal chelating activity of the compound assessed as formation of copper complex at 10 uM by UV-vis spectrometry; format: physicochemical
[15] = tested on: Mus musculus; assay: Toxicity in scopolamine-induced memory deficit Kunming mouse model assessed as change in body weight at 2.5 to 10 mg/Kg, po for 7 days; format: organism-based; conditions: in vivo, 168 h
[16] = tested on: Mus musculus; assay: Toxicity in scopolamine-induced memory deficit Kunming mouse model assessed as effect on survival at 2.5 to 10 mg/Kg, po for 7 days; format: organism-based; conditions: in vivo, 168 h
[17] = tested on: Mus musculus; assay: Hepatotoxicity in scopolamine-induced memory deficit Kunming mouse model assessed as increase in alanine aminotransferase levels at 10 mg/kg, po for 6 days; format: toxicity, organism-based; conditions: in vivo, 144 h
[18] = Inhibition of copper-mediated aggregation of amyloid beta (1 to 42 residues) (unknown origin) incubated for 46 to 48 hrs by thioflavin-T binding assay; format: physicochemical
[19] = tested on: Mus musculus; assay: Hepatotoxicity in scopolamine-induced memory deficit Kunming mouse model assessed as area of necrosis in hepatocytes at 10 mg/Kg, po for 6 days by hematoxylin and eosin-staining based microscopic analysis; format: toxicity, organism-based, Hepatocyte; conditions: 144 h
[20] = Metal chelating activity of the compound assessed as formation of copper complex at 50 uM by fluorescence spectrophotometry; format: physicochemical
[21] = tested on: Mus musculus; assay: Cognitive enhancement activity in po dosed scopolamine-induced memory deficit Kunming mouse model assessed as increase in step-through latency time treated for 1 hr before training followed by scopolamine challenge 30 mins before training measured 24 hrs after training trial by passive avoidance test; format: functional, organism-based
[22] = tested on: Mus musculus; assay: Hepatotoxicity in scopolamine-induced memory deficit Kunming mouse model assessed as distinct fatty degeneration in hepatocytes at 10 mg/Kg, po for 6 days by hematoxylin and eosin-staining based microscopic analysis; format: toxicity, organism-based; conditions: in vivo, 144 h
[23] = tested on: Mus musculus; assay: Hepatotoxicity in scopolamine-induced memory deficit Kunming mouse model assessed as increased aspartate aminotransferase at 10 mg/Kg, po for 6 days; format: toxicity, organism-based; conditions: in vivo, 144 h
[24] = molecular target: T1, Acetylcholinesterase; assay: Mixed-type inhibition of human erythrocyte AChE preincubated for 15 mins followed by addition of acetylthiocholine iodide as substrate in varying concentrations by Lineweaver-Burk reciprocal plot analysis
[25] = tested on: Mus musculus; assay: Hepatotoxicity in scopolamine-induced memory deficit Kunming mouse model assessed as increase in number of inflammatory cells in portal fields of liver at 10 mg/Kg, po for 6 days by hematoxylin and eosin-staining based microscopic analysis; format: toxicity, organism-based; conditions: in vivo, 144 h
[26] = Metal chelating activity assessed as mole fraction of compound required to show 1:1 stoichiometry for Cu2+-compound complex at 10 uM by UV-vis spectrometry; format: physicochemical
[27] = tested on: PC-12; assay: Neuroprotective activity against amyloid beta (1 to 42 residues) induced cell death in rat PC12 cells assessed as increase in cell viability at 20 uM preincubated for 24 hrs followed by amyloid beta (1 to 42 residues) addition measured after 24 hrs by MTT assay; format: functional, cell-based
[28] = tested on: Mus musculus; assay: Hepatotoxicity in Kunming mouse assessed as area of necrosis in hepatocytes at 3 mg/kg, po for 6 days by hematoxylin and eosin-staining based microscopic analysis; format: toxicity, organism-based, Hepatocyte; conditions: 144 h
[29] = tested on: Mus musculus; assay: Hepatotoxicity in Kunming mouse assessed as distinct fatty degeneration in hepatocytes at 3 mg/kg, po for 6 days by hematoxylin and eosin-staining based microscopic analysis; format: toxicity, organism-based; conditions: in vivo, 144 h
[30] = tested on: Mus musculus; assay: Hepatotoxicity in Kunming mouse assessed as increase in number of inflammatory cells in portal fields of liver at 3 mg/kg, po for 6 days by hematoxylin and eosin-staining based microscopic analysis; format: toxicity, organism-based; conditions: in vivo, 144 h

Cholinesterase (Homo sapiens, UniProt P06276), sequence (P06276 whole entry): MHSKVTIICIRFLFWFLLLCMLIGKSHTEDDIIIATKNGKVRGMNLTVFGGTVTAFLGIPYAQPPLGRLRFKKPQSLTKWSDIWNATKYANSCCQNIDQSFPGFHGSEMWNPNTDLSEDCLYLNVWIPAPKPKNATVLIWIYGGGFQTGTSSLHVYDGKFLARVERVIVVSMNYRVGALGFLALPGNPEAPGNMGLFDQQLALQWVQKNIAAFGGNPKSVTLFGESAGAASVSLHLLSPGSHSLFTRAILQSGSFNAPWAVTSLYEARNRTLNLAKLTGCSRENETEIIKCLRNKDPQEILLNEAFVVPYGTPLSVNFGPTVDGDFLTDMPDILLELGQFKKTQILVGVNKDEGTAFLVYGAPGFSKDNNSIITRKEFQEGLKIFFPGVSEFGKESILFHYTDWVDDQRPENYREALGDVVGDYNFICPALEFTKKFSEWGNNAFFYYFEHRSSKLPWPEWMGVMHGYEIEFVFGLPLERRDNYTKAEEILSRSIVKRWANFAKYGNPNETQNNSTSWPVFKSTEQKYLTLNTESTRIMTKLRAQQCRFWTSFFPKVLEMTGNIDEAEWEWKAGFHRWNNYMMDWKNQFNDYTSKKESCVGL
Acetylcholinesterase (Electrophorus electricus, UniProt O42275), sequence (O42275 whole entry): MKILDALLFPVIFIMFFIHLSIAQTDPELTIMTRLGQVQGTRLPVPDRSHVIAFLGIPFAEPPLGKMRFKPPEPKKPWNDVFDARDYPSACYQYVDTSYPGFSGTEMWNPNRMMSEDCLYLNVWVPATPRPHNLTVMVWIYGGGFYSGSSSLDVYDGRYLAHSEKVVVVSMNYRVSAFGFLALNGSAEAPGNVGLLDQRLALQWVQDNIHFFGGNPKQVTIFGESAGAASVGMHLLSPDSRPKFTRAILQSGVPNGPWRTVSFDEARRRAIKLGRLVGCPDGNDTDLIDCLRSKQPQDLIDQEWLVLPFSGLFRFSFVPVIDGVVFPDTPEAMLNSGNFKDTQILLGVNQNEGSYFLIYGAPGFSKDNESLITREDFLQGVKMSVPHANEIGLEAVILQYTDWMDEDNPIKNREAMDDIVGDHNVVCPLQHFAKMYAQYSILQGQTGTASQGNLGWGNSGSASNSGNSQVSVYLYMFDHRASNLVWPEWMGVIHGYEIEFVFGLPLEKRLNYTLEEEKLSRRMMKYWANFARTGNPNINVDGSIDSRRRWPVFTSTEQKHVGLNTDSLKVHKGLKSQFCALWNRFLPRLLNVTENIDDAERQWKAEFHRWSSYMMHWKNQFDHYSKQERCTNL
T1 sequence (P22303 whole entry): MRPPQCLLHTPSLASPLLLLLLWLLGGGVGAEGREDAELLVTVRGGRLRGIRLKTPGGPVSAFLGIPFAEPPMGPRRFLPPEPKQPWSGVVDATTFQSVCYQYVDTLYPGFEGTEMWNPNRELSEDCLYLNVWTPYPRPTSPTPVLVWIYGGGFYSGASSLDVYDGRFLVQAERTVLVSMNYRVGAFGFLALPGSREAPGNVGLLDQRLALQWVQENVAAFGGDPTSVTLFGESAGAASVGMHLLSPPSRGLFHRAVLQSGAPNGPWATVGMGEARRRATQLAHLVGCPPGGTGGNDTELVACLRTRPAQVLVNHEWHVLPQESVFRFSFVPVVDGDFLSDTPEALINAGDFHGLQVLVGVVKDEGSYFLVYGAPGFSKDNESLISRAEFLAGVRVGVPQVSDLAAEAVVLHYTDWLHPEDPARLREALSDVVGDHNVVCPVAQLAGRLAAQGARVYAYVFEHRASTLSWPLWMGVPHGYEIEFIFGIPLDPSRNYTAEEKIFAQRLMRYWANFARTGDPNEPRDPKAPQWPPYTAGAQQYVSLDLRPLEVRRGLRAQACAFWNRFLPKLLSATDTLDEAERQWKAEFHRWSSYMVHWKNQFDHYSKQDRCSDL
Amyloid-beta precursor protein (Homo sapiens), sequence (P05067 whole entry, the tested form may be a part): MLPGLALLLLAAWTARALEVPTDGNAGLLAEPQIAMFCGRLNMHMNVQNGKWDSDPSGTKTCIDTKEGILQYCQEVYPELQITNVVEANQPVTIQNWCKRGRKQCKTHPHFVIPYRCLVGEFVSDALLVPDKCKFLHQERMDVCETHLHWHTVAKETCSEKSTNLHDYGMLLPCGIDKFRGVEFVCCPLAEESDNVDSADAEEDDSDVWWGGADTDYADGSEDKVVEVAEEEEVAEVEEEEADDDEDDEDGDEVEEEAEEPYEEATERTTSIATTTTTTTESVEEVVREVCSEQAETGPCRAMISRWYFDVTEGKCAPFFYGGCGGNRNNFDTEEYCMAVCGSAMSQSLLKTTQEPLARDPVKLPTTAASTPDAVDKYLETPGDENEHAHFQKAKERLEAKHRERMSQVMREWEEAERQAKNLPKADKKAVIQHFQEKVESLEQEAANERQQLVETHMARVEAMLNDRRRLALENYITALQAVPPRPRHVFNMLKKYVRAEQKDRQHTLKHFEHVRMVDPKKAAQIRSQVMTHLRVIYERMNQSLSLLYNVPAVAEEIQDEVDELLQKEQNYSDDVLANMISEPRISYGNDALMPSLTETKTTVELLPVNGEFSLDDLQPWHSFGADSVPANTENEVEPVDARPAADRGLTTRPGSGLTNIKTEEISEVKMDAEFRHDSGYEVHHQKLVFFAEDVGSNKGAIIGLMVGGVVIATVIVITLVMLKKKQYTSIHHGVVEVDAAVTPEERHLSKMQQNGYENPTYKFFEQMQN
Cholinesterase (Equus caballus, UniProt P81908), sequence (P81908 whole entry): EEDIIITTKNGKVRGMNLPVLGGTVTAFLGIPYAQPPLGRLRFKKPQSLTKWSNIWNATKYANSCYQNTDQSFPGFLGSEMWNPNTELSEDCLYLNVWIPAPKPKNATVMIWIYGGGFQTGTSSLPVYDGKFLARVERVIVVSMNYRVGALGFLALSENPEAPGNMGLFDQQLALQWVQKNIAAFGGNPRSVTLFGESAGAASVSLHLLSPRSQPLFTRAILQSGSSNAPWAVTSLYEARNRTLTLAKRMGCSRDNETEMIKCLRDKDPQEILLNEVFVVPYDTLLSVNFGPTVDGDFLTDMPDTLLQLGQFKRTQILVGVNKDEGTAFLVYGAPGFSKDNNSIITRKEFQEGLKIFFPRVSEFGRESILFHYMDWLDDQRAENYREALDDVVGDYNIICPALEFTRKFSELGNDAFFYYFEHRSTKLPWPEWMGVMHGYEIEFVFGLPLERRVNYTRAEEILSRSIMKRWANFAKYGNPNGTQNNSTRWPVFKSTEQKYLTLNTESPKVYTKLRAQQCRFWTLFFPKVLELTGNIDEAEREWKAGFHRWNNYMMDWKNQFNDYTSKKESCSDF

COc1cc2c(cc1OC)C(=O)C(CC1CCN(Cc3ncc(C)cc3C)CC1)C2 (centres undefined)
IC50 [1]: 8.55 µM
IC50 [2]: 0.814 µM
IC50 [3]: 6.31 µM
IC50 [4]: 1.01 µM

COc1cc2c(cc1OC)C(=O)C(CC1CCN(Cc3ccc(F)cc3)CC1)C2 (centres undefined)
IC50 [1]: 8.13 µM
IC50 [2]: 0.041 µM
IC50 [3]: 2.31 µM
IC50 [4]: 0.13 µM

COc1cc2c(cc1OC)C(=O)C(CC1CCN(Cc3ccc(Cl)cc3)CC1)C2 (centres undefined)
IC50 [1]: 81.6 µM
IC50 [2]: 2.86 µM
IC50 [3]: 89.4 µM
IC50 [4]: 4.8 µM

COc1cc2c(cc1OC)C(=O)C(CC1CCN(Cc3ncccc3C)CC1)C2 (centres undefined)
Papp at 18 h [5]: 8.4 ×10⁻⁶ cm/s
Activity [6]: Non-Toxic
IC50 [1]: 49.2 µM
inhibition [7]: 29.3%
IC50 [2]: 0.113 µM
IC50 [3]: 15.6 µM
IC50 [4]: 0.108 µM

COc1cc2c(cc1OC)C(=O)C(CC1CCN(Cc3ccccc3)CC1)C2 (centres undefined)
inhibition [7]: > 10%

COc1cc2c(cc1OC)C(=O)C(CC1CCN(Cc3ccccn3)CC1)C2 (centres undefined)
IC50 [1]: 38.6 µM
IC50 [2]: 0.147 µM
IC50 [3]: 7.83 µM
IC50 [4]: 1.09 µM

COc1cc2c(cc1OC)C(=O)C(CC1CCN(Cc3ccccc3[N+](=O)[O-])CC1)C2 (centres undefined)
IC50 [1]: 91.2 µM
IC50 [2]: 3.11 µM
IC50 [3]: 31.1 µM
IC50 [4]: 0.106 µM

COc1cc2c(cc1OC)C(=O)C(CC1CCN(Cc3ccc(O)c4ncccc34)CC1)C2 (centres undefined)
Activity [8]: Active
Activity [9]: Active
Papp at 18 h [5]: 8.8 ×10⁻⁶ cm/s
Activity [6]: Non-Toxic
inhibition [7]: 51.1%
IC50 [2]: 20.9 µM
IC50 [3]: 7.65 µM
IC50 [4]: 27.3 µM
Activity [10]: Active
Activity [11]: Active

COc1cc2c(cc1OC)C(=O)C(CC1CCN(Cc3ccccc3C(F)(F)F)CC1)C2 (centres undefined)
IC50 [1]: 41.4 µM
IC50 [2]: 4.87 µM
IC50 [3]: 31.7 µM
IC50 [4]: 0.7 µM

COc1cc2c(cc1OC)C(=O)C(CC1CCN(Cc3cccc(C)n3)CC1)C2 (centres undefined)
Activity [8]: Active
Activity [12]: Active
Activity [13]: Active
Activity [9]: Active
Activity [14]: Active
Activity [15]: Non-Toxic
Papp at 18 h [5]: 9.7 ×10⁻⁶ cm/s
Activity [6]: Non-Toxic
Activity [16]: Non-Toxic
Activity [17]: Non-Toxic
inhibition (INH) [18]: Dose-dependent effect
Activity [19]: Non-Toxic
IC50 [1]: 65.7 µM
Activity [20]: Active
inhibition [7]: 18.5%
Activity [21]: Dose-dependent effect
IC50 [2]: 0.073 µM
IC50 [3]: 20.5 µM
Activity [22]: Non-Toxic
Activity [23]: Non-Toxic
inhibition [24]: Active
IC50 [4]: 0.085 µM
Activity [10]: Active
Activity [11]: Active
Activity [25]: Non-Toxic
Activity [26]: 0.9 molar ratio

COc1ccc2[nH]cc(CCNC(C)=O)c2c1
Activity [27]: Active

COc1cc2c(cc1OC)C(=O)C(CC1CCN(Cc3cccc(Br)n3)CC1)C2 (centres undefined)
IC50 [2]: 1.98 µM
IC50 [3]: 17.5 µM
IC50 [4]: 0.253 µM

CN1[C@@H]2C[C@@H](OC(=O)[C@H](CO)c3ccccc3)C[C@H]1[C@@H]1O[C@H]12
Activity [28]: Non-Toxic
Activity [29]: Non-Toxic
Activity [30]: Non-Toxic

COc1cc2c(cc1OC)C(=O)C(CC1CCN(Cc3cccc([N+](=O)[O-])c3)CC1)C2 (centres undefined)
IC50 [2]: 0.652 µM
IC50 [3]: 42.4 µM
IC50 [4]: 0.414 µM

COc1cc2c(cc1OC)C(=O)C(CC1CCN(Cc3cccc(F)c3)CC1)C2 (centres undefined)
Papp at 18 h [5]: 11.5 ×10⁻⁶ cm/s
IC50 [1]: 26.7 µM
inhibition [7]: > 10%
IC50 [2]: 0.054 µM
IC50 [3]: 2.66 µM
IC50 [4]: 0.068 µM
